Laboratory results published in the supplement of paper PMC10307832.

What was measured:
Test in all cases: relative viability (nuclei count vs DMSO), 5 days (fraction); higher = more cells survive
[1] = compound: O=C(C[C@H]1NCCC[C@@H]1O)Cn1cnc2cc(Br)c(Cl)cc2c1=O (racemic) [Halofuginone] + CC(=O)c1c(C)c2cnc(Nc3ccc(N4CCNCC4)cn3)nc2n(C2CCCC2)c1=O [Palbociclib] (partner 0.5 µM)
Method in brief: (§1)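 Lung cancer cell lines were seeded in 1536-well plates and dosed by pin tool the next day, with either a single drug or a fixed anchor-drug dose combined with five library-drug doses (not always all listed) spaced in √10 steps. Five days later, one step fixed the cells and stained their nuclei (final 0.05% Triton X-100, 1% formaldehyde, 1 ug/ml Hoechst), and nuclei were counted on 4× images. Relative viability is the nuclei count in treated wells divided by the count in vehicle wells, and each value is the median of duplicate plates.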

Halofuginone + Olaparib = compound: O=C(C[C@H]1NCCC[C@@H]1O)Cn1cnc2cc(Br)c(Cl)cc2c1=O (racemic) [Halofuginone] + O=C(c1cc(Cc2n[nH]c(=O)c3ccccc23)ccc1F)N1CCN(C(=O)C2CC2)CC1 [Olaparib] (partner 8 µM)
Method in brief: as §1

[2] = compound: O=C(C[C@H]1NCCC[C@@H]1O)Cn1cnc2cc(Br)c(Cl)cc2c1=O (racemic) [Halofuginone] + C[C@@H](Oc1cc(-c2cnn(C3CCNCC3)c2)cnc1N)c1c(Cl)ccc(F)c1Cl [Crizotinib] (partner 1 µM)
Method in brief: as §1

Decitabine + Foretinib = compound: Nc1ncn([C@H]2C[C@H](O)[C@@H](CO)O2)c(=O)n1 [Decitabine] + COc1cc2c(Oc3ccc(NC(=O)C4(C(=O)Nc5ccc(F)cc5)CC4)cc3F)ccnc2cc1OCCCN1CCOCC1 [Foretinib] (partner 0.25 µM)
Method in brief: as §1

Row | Cell Line | relative viability ([1]; first compound 0.001 µM) | relative viability ([1]; first compound 0.003162 µM) | relative viability ([1]; first compound 0.01 µM) | relative viability ([1]; first compound 0.03162 µM) | relative viability ([1]; first compound 0.1 µM) | relative viability (Halofuginone + Olaparib; first compound 0.001 µM) | relative viability (Halofuginone + Olaparib; first compound 0.003162 µM) | relative viability (Halofuginone + Olaparib; first compound 0.01 µM) | relative viability (Halofuginone + Olaparib; first compound 0.03162 µM) | relative viability (Halofuginone + Olaparib; first compound 0.1 µM) | relative viability ([2]; first compound 0.001 µM) | relative viability ([2]; first compound 0.003162 µM) | relative viability ([2]; first compound 0.01 µM) | relative viability ([2]; first compound 0.03162 µM) | relative viability ([2]; first compound 0.1 µM) | relative viability (Decitabine + Foretinib; first compound 0.04 µM) | relative viability (Decitabine + Foretinib; first compound 0.1265 µM) | relative viability (Decitabine + Foretinib; first compound 0.4 µM) | relative viability (Decitabine + Foretinib; first compound 1.265 µM) | relative viability (Decitabine + Foretinib; first compound 4 µM)
1 | NCI-H727 | 0.715 | 0.582 | 0.677 | 0.703 | 0.575 | 0.79 | 0.683 | 0.787 | 0.727 | 0.518 | 0.689 | 1.04 | 0.771 | 0.574 | 0.234 | 0.669 | 0.675 | 0.651 | 0.775 | 0.483
2 | NCI-H358 | 0.142 | 0.127 | 0.141 | 0.129 | 0.0899 | 0.653 | 0.556 | 0.459 | 0.26 | 0.124 | 0.832 | 0.678 | 0.467 | 0.253 | 0.0914 | 0.53 | 0.406 | 0.274 | 0.142 | 0.136
3 | NCI-H1437 | 0.334 | 0.3 | 0.296 | 0.33 | 0.286 | 0.649 | 0.653 | 0.619 | 0.616 | 0.456 | 0.935 | 0.918 | 0.807 | 0.73 | 0.841 | 1.11 | 0.881 | 0.657 | 0.468 | 0.391
4 | NCI-H441 | 0.254 | 0.241 | 0.206 | 0.241 | 0.152 | 0.591 | 0.537 | 0.56 | 0.455 | 0.238 | 0.967 | 1.1 | 0.677 | 0.694 | 0.311 | 0.396 | 0.401 | 0.347 | 0.25 | 0.325
5 | EMC-BAC-2 | 0.545 | 0.531 | 0.506 | 0.536 | 0.37 | 0.538 | 0.486 | 0.471 | 0.476 | 0.299 | 0.856 | 0.805 | 0.778 | 0.769 | 0.32 | 0.936 | 0.861 | 0.762 | 0.66 | 0.588
6 | NCI-H647 | 0.413 | 0.399 | 0.422 | 0.287 | 0.105 | 0.637 | 0.746 | 0.517 | 0.442 | 0.11 | 0.942 | 1.13 | 0.978 | 0.834 | 0.0795 | 0.966 | 0.919 | 0.509 | 0.35 | 0.234
7 | CAL-12T | 0.332 | 0.433 | 0.406 | 0.392 | 0.194 | 0.785 | 0.717 | 0.709 | 0.754 | 0.548 | 0.733 | 0.835 | 0.527 | 0.834 | 0.237 | 1.08 | 0.883 |  | 0.618 | 0.419
8 | NCI-H1792 | 0.613 | 0.704 | 0.666 | 0.662 | 0.585 | 0.529 | 0.424 | 0.355 | 0.42 | 0.0661 | 1.04 | 0.973 | 0.985 | 0.959 | 1.03 |  |  |  |  | 
9 | H3255 | 0.322 | 0.323 | 0.346 | 0.309 | 0.351 | 0.622 | 0.563 | 0.522 | 0.514 | 0.544 | 0.94 | 0.948 | 0.875 | 0.952 | 0.791 |  | 0.652 | 0.484 | 0.587 | 0.513
10 | HCC-78 | 0.516 | 0.519 | 0.497 | 0.488 | 0.551 | 1.01 | 0.74 | 0.849 | 0.858 | 0.532 | 0.396 | 0.356 | 0.314 | 0.341 | 0.237 | 0.648 | 0.58 | 0.588 | 0.455 | 0.433
11 | EBC-1 |  |  |  |  |  | 0.752 | 0.706 | 0.532 | 0.303 | 0.169 | 0.186 | 0.202 | 0.188 | 0.223 | 0.2 | 0.0865 | 0.0957 | 0.106 | 0.0836 | 0.0866
12 | NCI-H2405 | 0.573 | 0.565 | 0.527 | 0.498 | 0.424 | 0.934 | 0.864 | 0.826 | 0.795 | 0.66 | 0.907 | 0.935 | 0.822 | 0.831 | 0.74 | 0.957 | 0.918 | 0.863 | 0.628 | 0.462
13 | A549 |  |  |  |  |  | 0.48 | 0.413 | 0.378 | 0.288 | 0.262 | 0.824 | 0.75 | 0.611 | 0.338 | 0.0443 | 0.719 | 0.634 | 0.448 | 0.143 | 0.0978
14 | NCI-H3122 | 0.186 | 0.155 | 0.162 | 0.186 | 0.19 | 0.654 | 0.618 | 0.642 | 0.692 | 0.686 | 0.253 | 0.251 | 0.232 | 0.281 | 0.264 | 0.898 | 0.775 | 0.715 | 0.539 | 0.575
15 | NCI-H1563 |  |  |  |  |  |  |  |  |  |  | 0.868 | 0.835 | 0.891 | 0.555 | 0.452 | 0.984 | 0.886 | 1.14 | 0.949 | 0.917
16 | HCC-44 | 0.976 | 0.964 | 0.962 | 0.932 | 0.966 | 0.97 | 1.03 | 0.987 | 0.962 | 0.942 | 0.89 | 0.833 | 0.72 | 0.745 | 0.516 |  |  |  |  | 
17 | PC-3 [JPC-3] | 0.595 | 0.511 | 0.529 | 0.516 | 0.493 | 1.19 | 1.12 | 1.15 | 1.15 | 0.948 | 1.03 | 0.969 | 0.975 | 0.943 | 0.988 | 0.833 | 0.71 | 0.588 | 0.54 | 0.472
